Source: ChEMBL document CHEMBL1201862, “PubChem BioAssay data set” (2004)
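1) Cells in 96-well plates. 2) Compound, 48 h, 5 concentrations. 3) Linear interpolation between surrounding doses. 4) Unreached endpoint = highest concentration. Abbreviation: GI50, concentration required for 50% inhibition of growth.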 Active and inactive are the calls of the source. Rule as the data show it: active = GI50 up to about 1.1 µM and inactive = higher.

Tests used:
Assay in all cases: NCI anticancer screen, dose series, 48 h
[1] = tested on: 786-0
[2] = tested on: A498
[3] = tested on: A549
[4] = tested on: ACHN
[5] = tested on: BT-549
[6] = tested on: CAKI-1
[7] = tested on: CCRF-CEM
[8] = tested on: COLO 205
[9] = tested on: DU-145
[10] = tested on: EKVX
[11] = tested on: HCT-116
[12] = tested on: HCT-15
[13] = tested on: HL-60
[14] = tested on: HOP-62
[15] = tested on: HOP-92
[16] = tested on: HT-29
[17] = tested on: Hs-578T
[18] = tested on: IGROV-1
[19] = tested on: K562
[20] = tested on: KM12
[21] = tested on: LOX IMVI
[22] = tested on: M14
[23] = tested on: MCF7
[24] = tested on: MDA-MB-231
[25] = tested on: MDA-MB-435
[26] = tested on: MDA-N
[27] = tested on: MOLT-4
[28] = tested on: Malme-3M
[29] = tested on: NCI-H226
[30] = tested on: NCI-H23
[31] = tested on: NCI-H460
[32] = tested on: NCI-H522
[33] = tested on: NCI/ADR-RES
[34] = tested on: OVCAR-3
[35] = tested on: OVCAR-4
[36] = tested on: OVCAR-5
[37] = tested on: OVCAR-8
[38] = tested on: PC-3
[39] = tested on: RPMI-8226
[40] = tested on: RXF 393
[41] = tested on: SF-268
[42] = tested on: SF-295
[43] = tested on: SF-539
[44] = tested on: SK-MEL-28
[45] = tested on: SK-MEL-2
[46] = tested on: SK-MEL-5
[47] = tested on: SK-OV-3
[48] = tested on: SN12C
[49] = tested on: SNB-75
[50] = tested on: SR
[51] = tested on: SW-620
[52] = tested on: T47D
[53] = tested on: TK-10
[54] = tested on: U-251
[55] = tested on: UACC-257
[56] = tested on: UACC-62
[57] = tested on: UO-31
[58] = tested on: SNB-19

For COc1cc2nc3n(c(=O)c2cc1OC)CCCCC3, the GI50 [1] was > 100 µM (inactive), the GI50 [2] was > 100 µM (inactive) and the GI50 [3] was > 100 µM (inactive). For the same compound, the GI50 [4] was > 100 µM (inactive), the GI50 [5] was > 100 µM (inactive) and the GI50 [6] was > 100 µM (inactive). For the same compound, the GI50 [7] was 94.2 µM (inactive), the GI50 [8] was > 100 µM (inactive) and the GI50 [9] was > 100 µM (inactive). The GI50 [10] was > 100 µM (inactive), the GI50 [11] was > 100 µM (inactive) and the GI50 [12] was over 100 µM. For the same compound, the GI50 [13] was > 100 µM (inactive), the GI50 [14] was > 100 µM (inactive) and the GI50 [15] was > 100 µM (inactive). For the same compound, the GI50 [16] was > 100 µM (inactive), the GI50 [17] was > 100 µM (inactive) and the GI50 [18] was > 100 µM (inactive). For the same compound, the GI50 [19] was > 100 µM (inactive), the GI50 [20] was > 100 µM (inactive) and the GI50 [21] was > 100 µM (inactive). For the same compound, the GI50 [22] was > 100 µM (inactive), the GI50 [23] was > 100 µM (inactive) and the GI50 [24] was > 100 µM (inactive). The GI50 [25] was > 100 µM (inactive), the GI50 [26] was > 100 µM (inactive) and the GI50 [27] was > 100 µM (inactive). The GI50 [28] was > 100 µM (inactive), the GI50 [29] was > 100 µM (inactive) and the GI50 [30] was > 100 µM (inactive). For the same compound, the GI50 [31] was > 100 µM (inactive), the GI50 [32] was > 100 µM (inactive) and the GI50 [33] was > 100 µM (inactive). For the same compound, the GI50 [34] was > 100 µM (inactive), the GI50 [35] was > 100 µM (inactive) and the GI50 [36] was > 100 µM (inactive). For the same compound, the GI50 [37] was > 100 µM (inactive), the GI50 [38] was > 100 µM (inactive) and the GI50 [39] was 83.9 µM (inactive). For the same compound, the GI50 [40] was > 100 µM (inactive), the GI50 [41] was > 100 µM (inactive) and the GI50 [42] was > 100 µM (inactive). For the same compound, the GI50 [43] was > 10 µM (inactive), the GI50 [44] was > 100 µM (inactive) and the GI50 [45] was > 100 µM (inactive). For the same compound, the GI50 [46] was > 100 µM (inactive), the GI50 [47] was > 100 µM (inactive) and the GI50 [48] was > 100 µM (inactive). The GI50 [49] was > 100 µM (inactive), the GI50 [50] was > 100 µM (inactive) and the GI50 [51] was > 100 µM (inactive). For the same compound, the GI50 [52] was > 100 µM (inactive), the GI50 [53] was > 100 µM (inactive) and the GI50 [54] was > 100 µM (inactive). The GI50 [55] was > 100 µM (inactive), the GI50 [56] was > 100 µM (inactive) and the GI50 [57] was > 100 µM (inactive).
In the case of Cc1cc(C)cc(C(=N)c2ccccc2Cc2cccc3ccccc23)c1, the GI50 [1] is reported as 15.2 µM (inactive), the GI50 [2] is reported as 27.9 µM (inactive) and the GI50 [3] is reported as 16 µM (inactive). The GI50 [4] was 16.6 µM (inactive), the GI50 [5] was 37.8 µM (inactive) and the GI50 [6] was 19.5 µM (inactive). The GI50 [7] was 9.73 µM (inactive), the GI50 [8] was 21.3 µM (inactive) and the GI50 [9] was 16.2 µM (inactive). For the same compound, the GI50 [10] was 16.7 µM (inactive), the GI50 [11] was 10.1 µM (inactive) and the GI50 [12] was 16.1 µM. The GI50 [13] was 13.3 µM (inactive), the GI50 [14] was 18 µM (inactive) and the GI50 [15] was 13.3 µM (inactive). The GI50 [16] was 9.66 µM (inactive), the GI50 [17] was 3.47 µM (inactive) and the GI50 [18] was 17.4 µM (inactive). For the same compound, the GI50 [19] was 16.3 µM (inactive), the GI50 [20] was 11.4 µM (inactive) and the GI50 [21] was 18 µM (inactive). The GI50 [22] was 16.5 µM (inactive), the GI50 [23] was 16.2 µM (inactive) and the GI50 [24] was > 100 µM (inactive). The GI50 [25] was 17.2 µM (inactive), the GI50 [26] was 21.1 µM (inactive) and the GI50 [27] was 9.64 µM (inactive). The GI50 [28] was 12.8 µM (inactive), the GI50 [29] was 14.6 µM (inactive) and the GI50 [30] was 15.7 µM (inactive). For the same compound, the GI50 [31] was 13.5 µM (inactive), the GI50 [32] was 7.28 µM (inactive) and the GI50 [33] was 20.2 µM (inactive). For the same compound, the GI50 [34] was 18.7 µM (inactive), the GI50 [35] was 15.8 µM (inactive) and the GI50 [36] was 16.6 µM (inactive). For the same compound, the GI50 [37] was 18 µM (inactive), the GI50 [38] was 45.8 µM (inactive) and the GI50 [39] was 20.3 µM (inactive). For the same compound, the GI50 [40] was 17.3 µM (inactive), the GI50 [41] was 15.9 µM (inactive) and the GI50 [42] was 11 µM (inactive). The GI50 [43] was 16.1 µM (inactive), the GI50 [44] was 16.9 µM (inactive) and the GI50 [45] was 37.8 µM (inactive). The GI50 [46] was 16.6 µM (inactive), the GI50 [47] was 17.5 µM (inactive) and the GI50 [48] was 17.7 µM (inactive). The GI50 [58] was 19.5 µM (inactive), the GI50 [50] was 14.2 µM (inactive) and the GI50 [51] was 15.2 µM (inactive). The GI50 [52] was 16.3 µM (inactive), the GI50 [53] was 25.6 µM (inactive) and the GI50 [54] was 40.6 µM (inactive). For the same compound, the GI50 [55] was 22.2 µM (inactive), the GI50 [56] was 13.9 µM (inactive) and the GI50 [57] was 26.4 µM (inactive).
With NC(=O)C(c1ccccc1)N1OC2C(=O)N(Cc3ccccc3)C(=O)C2C1c1cccc(Oc2ccc(Cl)cc2)c1 (stereo unspecified) the GI50 [1] was 21.3 µM (inactive), the GI50 [2] was 52.1 µM (inactive) and the GI50 [3] was 31.4 µM (inactive). The GI50 [4] was 20.4 µM (inactive), the GI50 [5] was 34 µM (inactive) and the GI50 [6] was 14.9 µM (inactive). For the same compound, the GI50 [7] was 36.1 µM (inactive), the GI50 [8] was 17.5 µM (inactive) and the GI50 [9] was 33.1 µM (inactive). For the same compound, the GI50 [10] was 27.1 µM (inactive), the GI50 [11] was 19.4 µM (inactive) and the GI50 [12] was 30.4 µM. For the same compound, the GI50 [13] was 23.4 µM (inactive), the GI50 [14] was 42.1 µM (inactive) and the GI50 [15] was 33 µM (inactive). The GI50 [16] was 18.2 µM (inactive), the GI50 [17] was 49.1 µM (inactive) and the GI50 [18] was 36.5 µM (inactive). For the same compound, the GI50 [19] was 26 µM (inactive), the GI50 [20] was 28.3 µM (inactive) and the GI50 [21] was 15.7 µM (inactive). For the same compound, the GI50 [22] was 23.6 µM (inactive), the GI50 [23] was 28 µM (inactive) and the GI50 [24] was 37.1 µM (inactive). The GI50 [25] was 27 µM (inactive), the GI50 [26] was 20.7 µM (inactive) and the GI50 [27] was 32.8 µM (inactive). The GI50 [28] was 42.9 µM (inactive), the GI50 [29] was 26.8 µM (inactive) and the GI50 [30] was 36.2 µM (inactive). For the same compound, the GI50 [31] was 28.8 µM (inactive), the GI50 [32] was 28.7 µM (inactive) and the GI50 [33] was 34 µM (inactive). For the same compound, the GI50 [34] was 19.9 µM (inactive), the GI50 [35] was 27.8 µM (inactive) and the GI50 [36] was 32.1 µM (inactive). The GI50 [37] was 39.7 µM (inactive), the GI50 [38] was 33.4 µM (inactive) and the GI50 [40] was 17.5 µM (inactive). For the same compound, the GI50 [41] was 35.8 µM (inactive), the GI50 [42] was 38.5 µM (inactive) and the GI50 [43] was 18.7 µM (inactive). For the same compound, the GI50 [44] was 79.3 µM (inactive), the GI50 [45] was 22.2 µM (inactive) and the GI50 [46] was 15.9 µM (inactive). The GI50 [47] was 60.7 µM (inactive), the GI50 [48] was 16.4 µM (inactive) and the GI50 [58] was 37.1 µM (inactive). The GI50 [49] was 31.7 µM (inactive), the GI50 [50] was 22.7 µM (inactive) and the GI50 [51] was 48.8 µM (inactive). For the same compound, the GI50 [52] was 32.1 µM (inactive), the GI50 [53] was 30.9 µM (inactive) and the GI50 [54] was 28.2 µM (inactive). The GI50 [55] was 36.6 µM (inactive), the GI50 [56] was 15.8 µM (inactive) and the GI50 [57] was 2.73 µM (inactive).
